Source: publication PMC7997574, “Lead Optimization of Benzoxazolone Carboxamides as Orally Bioavailable and CNS Penetrant Acid Ceramidase Inhibitors” (Journal of Medicinal Chemistry, 2020)
pIC50: −log10 of the molar value.

Molecular target: T1, human fatty acid amide hydrolyase (FAAH) (Homo sapiens, UniProt O00519)
T1 construct: expressed in transfected cells
T1 sequence (O00519 1-579): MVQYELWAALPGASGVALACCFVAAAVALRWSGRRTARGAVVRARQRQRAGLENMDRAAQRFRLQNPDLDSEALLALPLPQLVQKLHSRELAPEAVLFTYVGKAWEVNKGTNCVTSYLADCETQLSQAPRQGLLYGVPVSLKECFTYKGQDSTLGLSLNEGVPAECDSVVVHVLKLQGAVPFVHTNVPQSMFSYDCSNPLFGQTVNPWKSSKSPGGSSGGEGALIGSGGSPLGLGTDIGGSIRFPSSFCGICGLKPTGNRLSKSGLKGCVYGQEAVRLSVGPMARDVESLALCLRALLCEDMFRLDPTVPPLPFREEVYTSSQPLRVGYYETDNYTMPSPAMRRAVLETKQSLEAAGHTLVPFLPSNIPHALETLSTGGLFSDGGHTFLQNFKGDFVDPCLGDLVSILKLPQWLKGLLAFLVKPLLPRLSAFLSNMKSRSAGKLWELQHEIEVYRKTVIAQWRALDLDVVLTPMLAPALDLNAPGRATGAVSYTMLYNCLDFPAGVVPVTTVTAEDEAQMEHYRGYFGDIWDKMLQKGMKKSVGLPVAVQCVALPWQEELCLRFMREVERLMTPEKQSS
Test: Fluorogenic hFAAH assay
Assay type: biochemical
Experimental: hFAAH was obtained from a HEK-293 FAAH-1 overexpressing stable cell line. Cells were grown in Dulbecco’s modified Eagle medium (DMEM) containing 10% FBS, 1% penicillin/streptomycin, 1% glutamine, 1 mM sodium pyruvate, and 500 μg mL^–1 G418. Cells were harvested, and pellets were stored at −80 °C until membrane-enriched lysate preparation. The cell pellet was resuspended in 20 mM Tris HCl (pH 7.4, 0.32 M sucrose), sonicated, and centrifuged at 1000 × g (10 min, 4 °C). The collected supernatant was centrifuged at 12000 × g for 10 min at 4 °C, and the supernatants were further centrifuged at 100000 × g for 1 h at 4 °C. Membrane pellets were resuspended in PBS, protein concentration was measured, and samples were aliquoted and stored at −80 °C until use.
The fluorescence assay to measure FAAH activity was performed in 96-well black plates (Black OptiPlate-96F; PerkinElmer, Massachusetts, USA): 2.5 μg of hFAAH membrane preparation was preincubated for 50 min at 37 °C in 190 μL of assay buffer (50 mM Tris HCl pH 7.4, 0.05% fatty acid free BSA), with 5 μL of inhibitor or 5 μL of DMSO to measure FAAH total activity. […] The reaction was carried out for 45 min at 37 °C, and fluorescence was measured with an EnVision 2014 Multilabel Reader (PerkinElmer, Massachusetts, USA) (excitation wavelength 355 nm/emission wavelength 460 nm). […]

**Q.** With `CC(C)CNC(=O)n1c(=O)oc2cc(C3CCN(C)CC3)ccc21` [22m, N-Isobutyl-6-(1-methyl-4-piperidyl)-2-oxo-1,3-benzoxazole-3-carboxamide] as the molecule, how does the pIC50 read?
**A.** 7.15
